Where a name gives a salt, the structure may show the parent alone.
What follows are compounds tested against T1, human A3AR (Homo sapiens, UniProt P0DMS8) (assay: LOPAC library primary screen: single concentration (10 μM) inhibition of 25 nM CA200645 binding, PHERAstar FS). Conditions: not given.
T1 construct: expressed in transfected cells
T1 sequence (P0DMS8 1-318): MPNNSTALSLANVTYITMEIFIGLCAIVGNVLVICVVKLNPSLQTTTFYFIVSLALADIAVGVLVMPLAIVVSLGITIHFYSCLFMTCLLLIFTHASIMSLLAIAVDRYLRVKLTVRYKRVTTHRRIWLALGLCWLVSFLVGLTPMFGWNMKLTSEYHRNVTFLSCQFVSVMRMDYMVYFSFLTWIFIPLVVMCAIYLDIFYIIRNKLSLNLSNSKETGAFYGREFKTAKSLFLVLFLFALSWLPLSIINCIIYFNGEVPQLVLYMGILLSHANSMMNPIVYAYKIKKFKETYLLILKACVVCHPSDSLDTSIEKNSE
CCN(CC)CCNC(=O)c1c(C)[nH]c(/C=C2\C(=O)Nc3ccc(F)cc32)c1C [Sunitinib malate] was tested, and the “% 25 nM CA200645 binding” value was 97.4 ± 12.4%.
With Nc1ccc(-c2ccc3ccccc3n2)cc1 [BF-170 hydrochloride] the “% 25 nM CA200645 binding” value was 78.6 ± 20.5%.
C[N+](C)(C)CCOP(=O)([O-])OP(=O)([O-])OC[C@H]1O[C@@H](n2ccc(N)nc2=O)[C@H](O)[C@@H]1O.[Na+] was tested, and the “% 25 nM CA200645 binding” value was 102.5 ± 15.7%.
In the case of O=C(O)C1CCCNC1 (racemic) [(±)-Nipecotic acid], the “% 25 nM CA200645 binding” value is reported as 101.9 ± 5.9%.
Nc1nc2c(cnn2CCc2ccccc2)c2nc(-c3ccco3)nn12 [SCH 58261, reference compound] was tested, and the “% 25 nM CA200645 binding” value was 52.5 ± 9.7% and the “% Total CA200645 binding” value was 52.2 ± 5.4%.
In the case of COc1cccc(OC)c1OCCNCC1COc2ccccc2O1.Cl (centres unmarked) [WB-4101 hydrochloride], the “% 25 nM CA200645 binding” value is reported as 76.0 ± 5.8%.
For COc1ccc(CCN(C)CCCC(C#N)(c2cc(OC)c(OC)c(OC)c2)C(C)C)cc1OC.Cl (racemic) [(±)-Methoxyverapamil hydrochloride], the “% 25 nM CA200645 binding” value was 97.3 ± 10.6%.
For OC[C@H]1NC[C@@H](O)[C@@H]1O [1,4-Dideoxy-1,4-imino-D-arabinitol], the “% 25 nM CA200645 binding” value was 90.0 ± 6.2%.
With N[C@H](C(=O)O)[C@H](Cc1ccccc1)C(=O)O [L-Beta-threo-benzyl-aspartate] the “% 25 nM CA200645 binding” value was 95.9 ± 9.2%.
In the case of CCN(CC)CCCCCCCCOC(=O)c1cc(OC)c(OC)c(OC)c1.Cl [TMB-8 hydrochloride], the “% 25 nM CA200645 binding” value is reported as 95.0 ± 0.4%.
CC(=O)OCC1=C(C(=O)[O-])N2C(=O)[C@@H](NC(=O)CCC[C@@H](N)C(=O)[O-])[C@H]2SC1.[Zn+2] [Cephalosporin C zinc salt] was tested, and the “% 25 nM CA200645 binding” value was 86.9 ± 28.2%.
With N[C@H](CO)C(=O)O [D-Serine] the “% 25 nM CA200645 binding” value was 100.2 ± 11.0%.
In the case of NCCCNCCCCNCCCN [Spermine tetrahydrochloride], the “% 25 nM CA200645 binding” value is reported as 105.8 ± 16.0%.
For CCCCCCCC/C=C\CCCCCCCC(=O)O [Oleic Acid], the “% 25 nM CA200645 binding” value was 98.9 ± 11.8%.
For O=C(O)CN(CCN(CC(=O)O)CC(=O)O)CCN(CC(=O)O)CC(=O)O [Diethylenetriaminepentaacetic acid], the “% 25 nM CA200645 binding” value was 99.2 ± 10.9%.
In the case of NCCCC(=O)O [GABA], the “% 25 nM CA200645 binding” value is reported as 95.6 ± 8.2%.
C[C@@H]1O[C@H](C[N+](C)(C)C)C[C@H]1O.[Cl-] (racemic) [(±)-Muscarine chloride] was tested, and the “% 25 nM CA200645 binding” value was 94.8 ± 15.8%.
C#CCN(C)Cc1ccccc1 [Pargyline hydrochloride] was tested, and the “% 25 nM CA200645 binding” value was 102.9 ± 12.8%.
With C[N+](C)(C)CC#CCOC(=O)Nc1cccc(Cl)c1.[Cl-] [McN-A-343] the “% 25 nM CA200645 binding” value was 93.8 ± 10.4%.
For Cl.NO [Hydroxylamine hydrochloride], the “% 25 nM CA200645 binding” value was 99.3 ± 3.4%.
In the case of CN(C)CCC(c1ccc(Br)cc1)c1ccccn1.O=C(O)/C=C\C(=O)O (racemic) [(±)-Brompheniramine maleate], the “% 25 nM CA200645 binding” value is reported as 101.5 ± 4.3%.
In the case of COc1cccc(OC)c1OCCNCC1CSc2ccccc2O1 (centres unmarked) [Benoxathian hydrochloride], the “% 25 nM CA200645 binding” value is reported as 95.8 ± 4.4%.
CN1CC[C@@]2(C)c3cc(OC(=O)Nc4ccccc4)ccc3N(C)[C@@H]12 [Phenserine] was tested, and the “% 25 nM CA200645 binding” value was 81.1 ± 29.6%.
In the case of Cc1ccc(/C(=C\CN2CCCC2)c2ccccn2)cc1.Cl [Triprolidine hydrochloride], the “% 25 nM CA200645 binding” value is reported as 90.2 ± 0.5%.
For C[C@](N)(Cc1ccc(O)c(O)c1)C(=O)O [L-alpha-Methyl DOPA], the “% 25 nM CA200645 binding” value was 92.6 ± 21.6%.
For CC(C)c1cccc(C(C)C)c1O [Propofol], the “% 25 nM CA200645 binding” value was 96.0 ± 3.0%.
With c1ccc(C(NCc2cccnc2)(c2ccccc2)c2ccccc2)cc1 [UCL 2077] the “% 25 nM CA200645 binding” value was 52.2 ± 5.4%.
With Brc1c(Br)c(Br)c2[nH]cnc2c1Br [TBBz] the “% 25 nM CA200645 binding” value was 74.5 ± 15.0%.
With CC(=O)c1ccc2c(c1)N(CCCN(C)C)c1ccccc1S2 [Acepromazine maleate] the “% 25 nM CA200645 binding” value was 90.7 ± 4.5%.
In the case of O=C1NC(=O)/C(=C\c2ccc3nccnc3c2)S1 [AS605240], the “% 25 nM CA200645 binding” value is reported as 83.4 ± 13.4%.
For O=C(NCCN1CCOCC1)c1ccc(Cl)cc1 [Moclobemide], the “% 25 nM CA200645 binding” value was 97.8 ± 6.0%.
In the case of NC[C@H](O)c1ccc(O)c(O)c1.O=C(O)C(O)C(O)C(=O)O [L(-)-Norepinephrine bitartrate], the “% 25 nM CA200645 binding” value is reported as 97.7 ± 6.2%.
CCCNC(=O)NS(=O)(=O)c1ccc(Cl)cc1 [Chlorpropamide] was tested, and the “% 25 nM CA200645 binding” value was 97.6 ± 7.8%.
For NNCCc1ccccc1 [Phenelzine sulfate], the “% 25 nM CA200645 binding” value was 99.4 ± 7.6%.
For COC(=O)C1=CCCN(C)C1 [Arecoline hydrobromide], the “% 25 nM CA200645 binding” value was 81.8 ± 27.0%.
In the case of O=C(CCCN1CCC2(CC1)C(=O)NCN2c1ccccc1)c1ccc(F)cc1 [Spiperone hydrochloride], the “% 25 nM CA200645 binding” value is reported as 85.1 ± 18.3%.
With COC(=O)C1=C(C)NC(C)=C(C(=O)OC(C)(C)CN(C)CCC(c2ccccc2)c2ccccc2)C1c1cccc([N+](=O)[O-])c1.COC(=O)C1=C(C)NC(C)=C(C(=O)OC(C)(C)CN(C)CCC(c2ccccc2)c2ccccc2)C1c1cccc([N+](=O)[O-])c1.Cl.Cl.O (centres unmarked) [Lercanidipine hydrochloride hemihydrate] the “% 25 nM CA200645 binding” value was 82.9 ± 16.7%.
In the case of Cl.Cl.Fc1ccc(C(OCCN2CCN(CCCc3ccccc3)CC2)c2ccc(F)cc2)cc1 [GBR-12909 dihydrochloride], the “% 25 nM CA200645 binding” value is reported as 95.7 ± 6.3%.
With C[N+](C)(C)CCOC(=O)CBr.[Br-] [Bromoacetylcholine bromide] the “% 25 nM CA200645 binding” value was 95.1 ± 8.8%.
O=C1CCC(N2C(=O)c3ccccc3C2=O)C(=O)N1 (racemic) [(±)-Thalidomide] was tested, and the “% 25 nM CA200645 binding” value was 108.7 ± 11.6%.
CCCOC(=O)c1c(-c2ccccc2)nc(CC)c(C(=O)SCC)c1CCC [MRS 1523, reference compound] was tested, and the “% 25 nM CA200645 binding” value was 57.3 ± 10.9%.
In the case of Cc1nc2c(OCc3ccccc3)cccn2c1CC#N [SCH-28080], the “% 25 nM CA200645 binding” value is reported as 97.5 ± 14.8%.
In the case of CC(C)c1cccc(C(C)C)c1N1C(=O)c2ccc(O)cc2C1=O [5HPP-33], the “% 25 nM CA200645 binding” value is reported as 91.1 ± 9.2%.
For Cc1cc(NC2CCCCC2)nc(-n2nc(C)cc2C)n1 [CyPPA], the “% 25 nM CA200645 binding” value was 68.8 ± 15.9%.
For COc1ccccc1N1CCN(CCCNc2c(C)c(=O)n(C)c(=O)n2C)CC1 [Urapidil, 5-Methyl-], the “% 25 nM CA200645 binding” value was 83.5 ± 22.8%.
For O=c1[nH]cc(F)c(=O)[nH]1 [5-Fluorouracil], the “% 25 nM CA200645 binding” value was 98.8 ± 8.7%.
For Oc1c2ccccc2c2c3c(cccc13)N=N2 [SP600125], the “% 25 nM CA200645 binding” value was 41.0 ± 10.4%.
In the case of O=C(O)CCc1nc(-c2ccccc2)c(-c2ccccc2)o1 [Oxaprozin], the “% 25 nM CA200645 binding” value is reported as 97.6 ± 6.3%.
For CC1=C(C(=O)O)N2C(=O)[C@@H](NC(=O)[C@H](N)C3=CCC=CC3)[C@H]2SC1 [Cephradine], the “% 25 nM CA200645 binding” value was 95.6 ± 1.1%.
For Fc1ccc2[nH]c(CN3CCN(c4ccccn4)CC3)cc2c1 [CP-226269], the “% 25 nM CA200645 binding” value was 83.6 ± 17.8%.

Same assay, conditions: % of 25 nM CA200645 binding in the presence of 10 μM compound, LOPAC full screen, A3AR CHO cells
With Nc1ccc(CCNc2ncnc3c2ncn3[C@@H]2O[C@H](CO)[C@@H](O)[C@H]2O)cc1 [APNEA, reference compound] the “% Total CA200645 binding” value was 41.0 ± 7.2%.
For CCCOC(=O)c1c(-c2ccccc2)nc(CC)c(C(=O)SCC)c1CCC [MRS 1523, reference compound], the “% Total CA200645 binding” value was 58.3 ± 11.4%.

Same assay, conditions: % of control wells (1% DMSO and 25 nM CA200645); compounds at 10 µM; whole live cells expressing the A3AR; mean ± SD, three experiments in duplicate
With O=c1c(-c2ccc(O)cc2)coc2cc(O)cc(O)c12 [Genistein] the “% 25 nM CA200645 binding” value was 66.1 ± 12.2%.

Same assay, conditions: compounds tested at 10 µM; % of control wells (1% DMSO and 25 nM CA200645); whole live cells expressing the A3AR; mean ± SD, three experiments in duplicate
With O=C1NCN(c2ccccc2)C12CCN(CC1COc3ccccc3O1)CC2 (centres unmarked) [Spiroxatrine] the “% 25 nM CA200645 binding” value was 112.7 ± 3.0%.
O=C(O)c1ccccc1Nc1cccc(OCc2ccc3ccccc3n2)c1 [SR 2640] was tested, and the “% 25 nM CA200645 binding” value was 103.1 ± 17.1%.

Source: publication PMC5733478, “A Non-imaging High Throughput Approach to Chemical Library Screening at the Unmodified Adenosine-A3 Receptor in Living Cells” (Frontiers in Pharmacology, 2017)
